Measured values as given in US12202835B2, “Substituted aromatic ring-linked dioxinoquinazolines and dioxinoquinolines as kinase inhibitors” (BEIJING SCITECH-MQ PHARMACEUTICALS LIMITED, priority 2018, dated 2025).

What was measured:
VEGFR-2 kinase = VEGFR-2 kinase (Homo sapiens (Human), UniProt P35968); experiment: Assay of small molecular compounds for inhibiting the activity of VEGFR-2 kinase (LANCE TR-FRET); type: biochemical; settings: read-out: VEGFR2 IC50
Outline: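 LANCE TR-FRET with human VEGFR-2 (2× stock 0.5 nM) preincubated 30 min with compound (final 2500 to 0.042 nM, 11-point 3-fold), then ULight-JAK-1 (Tyr1023) peptide/ATP added (4× stocks 200 nM/40 μM). Reaction 60 min room temperature, 4% DMSO; IC50 from inhibition-rate curve.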

[1] = test system: Ba/F3 LMNA-NTRK1-G595R cells; experiment: Assay for inhibiting the proliferation of Ba/F3 LMNA-NTRK1-G595R cells (CCK-8); type: cell-based; settings: Mus musculus, BaF3
Outline: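 Cells seeded in 96-well plates overnight, then exposed 72 h to 9 three-fold dilutions of compound (0.25% DMSO final). Viability by CCK-8 (1-2 h at 37° C., OD 450 nm), survival normalized to untreated and cell-free blanks; IC50 by curve fitting.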

Chain of VEGFR-2 kinase (P35968 20-1356): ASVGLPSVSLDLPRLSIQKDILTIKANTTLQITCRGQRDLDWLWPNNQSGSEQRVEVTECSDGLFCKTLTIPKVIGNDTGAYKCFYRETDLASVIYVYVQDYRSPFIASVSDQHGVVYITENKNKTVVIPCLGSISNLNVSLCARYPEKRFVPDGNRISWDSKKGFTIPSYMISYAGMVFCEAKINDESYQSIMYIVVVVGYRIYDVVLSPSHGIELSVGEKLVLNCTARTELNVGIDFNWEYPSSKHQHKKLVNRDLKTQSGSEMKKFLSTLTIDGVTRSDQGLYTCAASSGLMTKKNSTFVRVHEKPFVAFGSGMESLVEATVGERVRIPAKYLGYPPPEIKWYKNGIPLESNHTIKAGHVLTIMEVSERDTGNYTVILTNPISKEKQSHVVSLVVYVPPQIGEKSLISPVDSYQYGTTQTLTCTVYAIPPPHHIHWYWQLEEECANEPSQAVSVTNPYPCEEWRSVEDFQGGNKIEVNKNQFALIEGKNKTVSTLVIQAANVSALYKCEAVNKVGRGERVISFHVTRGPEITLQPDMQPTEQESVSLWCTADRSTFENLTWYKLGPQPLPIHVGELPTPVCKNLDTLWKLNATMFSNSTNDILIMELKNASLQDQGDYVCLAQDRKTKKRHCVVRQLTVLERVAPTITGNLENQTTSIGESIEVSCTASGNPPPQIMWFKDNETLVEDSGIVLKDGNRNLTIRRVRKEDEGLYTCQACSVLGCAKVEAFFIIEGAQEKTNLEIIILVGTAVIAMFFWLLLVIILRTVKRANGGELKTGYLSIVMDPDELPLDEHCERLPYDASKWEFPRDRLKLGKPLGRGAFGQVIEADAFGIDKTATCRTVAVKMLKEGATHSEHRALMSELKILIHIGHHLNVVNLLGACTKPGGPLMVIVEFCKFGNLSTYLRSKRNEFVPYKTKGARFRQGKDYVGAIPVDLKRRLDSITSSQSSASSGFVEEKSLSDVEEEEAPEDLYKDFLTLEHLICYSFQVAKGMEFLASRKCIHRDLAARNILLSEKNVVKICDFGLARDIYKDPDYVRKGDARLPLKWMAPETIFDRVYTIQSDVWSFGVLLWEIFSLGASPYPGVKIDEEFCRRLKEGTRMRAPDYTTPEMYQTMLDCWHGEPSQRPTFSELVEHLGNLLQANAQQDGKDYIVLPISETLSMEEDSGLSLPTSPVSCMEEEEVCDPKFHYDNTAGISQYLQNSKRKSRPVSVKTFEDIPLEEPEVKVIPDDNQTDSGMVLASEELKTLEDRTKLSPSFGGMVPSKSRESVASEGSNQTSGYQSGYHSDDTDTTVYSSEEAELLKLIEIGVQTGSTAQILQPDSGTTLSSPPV

SMILES	IC50 (VEGFR-2 kinase)	IC50 [1]
COCCn1cc(C(=O)Nc2ccc(Oc3ccnc4cc(OC)c5c(c34)OCCO5)c(F)c2)c(=O)n(-c2ccc(F)cc2)c1=O [Example 46, N-(3-fluoro-4-((5-methoxy-2,3-dihydro-[1,4]dioxino[2,3-f]quinolin-10-yl)oxy)phenyl)-3-(4-fluorophenyl)-1-(2-methoxyethyl)-2,4-dioxo-1,2,3,4-tetrahydropyrimidine-5-carboxamide]	500 to 5000 nM	50 to 200 nM
COCCOc1cc2nccc(Oc3ccc(NC(=O)c4cn(C(C)C)c(=O)n(-c5ccc(F)cc5)c4=O)cc3F)c2c2c1OCCO2 [Example 43, N-(3-fluoro-4-((5-(2-methoxyethoxy)-2,3-dihydro-[1,4]dioxino[2,3-f]quinolin-10-yl)oxy)phenyl)-3-(4-fluorophenyl)-1-isopropyl-2,4-dioxo-1,2,3,4-tetrahydropyrimidine-5-carboxamide]		50 to 200 nM
CCOc1ccn(-c2ccc(F)cc2)c(=O)c1C(=O)Nc1ccc(Oc2ccnc3cc(OC4CCOCC4)c4c(c23)OCCO4)c(F)c1 [Example 66, N-(4-((5-((tetrahydropyran-4-yl)oxy)-2,3-dihydro-[1,4]dioxino[2,3-f]quinolin-10-yl)oxy)-3-fluorophenyl)-4-ethoxy-1-(4-fluorophenyl)-2-oxo-1,2-dihydropyridine-3-carboxamide]	50 to 500 nM	
CCOc1ccn(-c2ccc(F)cc2)c(=O)c1C(=O)Nc1ccc(Oc2ccnc3cc(OCC4CC4)c4c(c23)OCCO4)c(F)c1 [Example 59, N-(4-((5-(cyclopropylmethoxy)-2,3-dihydro-[1,4]dioxino[2,3-f]quinolin-10-yl)oxy)-3-fluorophenyl)-4-ethoxy-1-(4-fluorophenyl)-2-oxo-1,2-dihydropyridine-3-carboxamide]	≤ 50 nM	
CCn1cc(C(=O)Nc2ccc(Oc3ccnc4cc(OCCOC)c5c(c34)OCCO5)c(F)c2)c(=O)n(-c2ccc(F)cc2)c1=O [Example 44, N-(3-fluoro-4-((5-(2-methoxyethoxy)-2,3-dihydro-[1,4]dioxino[2,3-f]quinolin-10-yl)oxy)phenyl)-3-(4-fluorophenyl)-1-ethyl-2,4-dioxo-1,2,3,4-tetrahydropyrimidine-5-carboxamide]	50 to 500 nM	≤ 50 nM

Second part, the compound after the results:

IC50 (VEGFR-2 kinase)	IC50 [1]	SMILES
≤ 50 nM	200 to 1000 nM	CN1CCN(CCCOc2cc3nccc(Oc4ccc(NC(=O)c5cn(C)c(=O)n(-c6ccc(F)cc6)c5=O)cc4F)c3c3c2OCCO3)CC1 [Example 74, N-(3-fluoro-4-((5-(3-(4-methylpiperazin-1-yl)propoxy)-2,3-dihydro-[1,4]dioxino[2,3-f]quinolin-10-yl)oxy)phenyl)-3-(4-fluorophenyl)-1-methyl-2,4-dioxo-1,2,3,4-tetrahydropyrimidine-5-carboxamide]
50 to 500 nM	50 to 200 nM	Cn1cc(C(=O)Nc2ccc(Oc3ccnc4cc(OC5CCOC5)c5c(c34)OCCO5)c(F)c2)c(=O)n(-c2ccc(F)cc2)c1=O (stereo not drawn) [Example 90, N-(3-fluoro-4-((5-((tetrahydrofuran-3-yl)oxy)-2,3-dihydro-[1,4]dioxino[2,3-f]quinolin-10-yl)oxy)phenyl)-3-(4-fluorophenyl)-1-methyl-2,4-dioxo-1,2,3,4-tetrahydropyrimidine-5-carboxamide]
500 to 5000 nM	50 to 200 nM	CC(C)n1cc(C(=O)Nc2ccc(Oc3ccnc4cc(OCCO)c5c(c34)OCCO5)c(F)c2)c(=O)n(-c2ccc(F)cc2)c1=O [Example 78, N-(3-fluoro-4-((5-(2-hydroxyethoxy)-2,3-dihydro-[1,4]dioxino[2,3-f]quinolin-10-yl)oxy)phenyl)-3-(4-fluorophenyl)-1-isopropyl-2,4-dioxo-1,2,3,4-tetrahydropyrimidine-5-carboxamide]
	50 to 200 nM	CC(C)n1cc(C(=O)Nc2ccc(Oc3ccnc4cc(OCCCO)c5c(c34)OCCO5)c(F)c2)c(=O)n(-c2ccc(F)cc2)c1=O [Example 79, N-(3-fluoro-4-((5-(3-hydroxypropoxy)-2,3-dihydro-[1,4]dioxino[2,3-f]quinolin-10-yl)oxy)phenyl)-3-(4-fluorophenyl)-1-isopropyl-2,4-dioxo-1,2,3,4-tetrahydropyrimidine-5-carboxamide]
	200 to 1000 nM	CC(=O)N1CCN(CCCOc2cc3nccc(Oc4ccc(NC(=O)c5cn(C(C)C)c(=O)n(-c6ccc(F)cc6)c5=O)cc4F)c3c3c2OCCO3)CC1 [Example 75, N-(3-fluoro-4-((5-(3-(4-acetylpiperazin-1-yl)propoxy)-2,3-dihydro-[1,4]dioxino[2,3-f]quinolin-10-yl)oxy)phenyl)-3-(4-fluorophenyl)-1-isopropyl-2,4-dioxo-1,2,3,4-tetrahydropyrimidine-5-carboxamide]
50 to 500 nM		CCOc1ccn(-c2ccc(F)cc2)c(=O)c1C(=O)Nc1ccc(Oc2ccnc3cc(OCCCOC)c4c(c23)OCCO4)c(F)c1 [Example 55, N-(4-((5-(3-methoxypropoxy)-2,3-dihydro-[1,4]dioxino[2,3-f]quinolin-10-yl)oxy)-3-fluorophenyl)-4-ethoxy-1-(4-fluorophenyl)-2-oxo-1,2-dihydropyridine-3-carboxamide]
50 to 500 nM	200 to 1000 nM	CC(C)n1cc(C(=O)Nc2ccc(Oc3ccnc4cc(OCCCN5CCCC5)c5c(c34)OCCO5)c(F)c2)c(=O)n(-c2ccc(F)cc2)c1=O [Example 77, N-(3-fluoro-4-((5-(3-(pyrrolidin-1-yl)propoxy)-2,3-dihydro-[1,4]dioxino[2,3-f]quinolin-10-yl)oxy)phenyl)-3-(4-fluorophenyl)-1-isopropyl-2,4-dioxo-1,2,3,4-tetrahydropyrimidine-5-carboxamide]
